According to patent US9486506B2 (Novo Nordisk A/S, priority 2011, dated 2016):
Where two headings read alike, the source gives them in different places. Numbered stars: 1 amine (or outer) side, 2 acyl side, 3 side chain; on linkers, the order of the positions; unused ones are H or OH. Side chains are listed from the residue outwards. Peptide text beside a SMILES is read from it. * marks the point of attachment. C18 diacid = O=C(O)CCCCCCCCCCCCCCCCC(=O)*; γGlu = O=C(O)[C@H](CCC(=O)[*:2])N[*:1]; AEEA = NCCOCCOCC(=O)O

Experiments:
glucagon receptor = molecular target: T1, glucagon receptor (Homo sapiens, UniProt P47871); assay: Assay (I) Glucagon activity (cAMP biosensor, FLIPR); format: cell-based
T1 construct: expressed in transfected cells
T1 sequence (P47871 26-477): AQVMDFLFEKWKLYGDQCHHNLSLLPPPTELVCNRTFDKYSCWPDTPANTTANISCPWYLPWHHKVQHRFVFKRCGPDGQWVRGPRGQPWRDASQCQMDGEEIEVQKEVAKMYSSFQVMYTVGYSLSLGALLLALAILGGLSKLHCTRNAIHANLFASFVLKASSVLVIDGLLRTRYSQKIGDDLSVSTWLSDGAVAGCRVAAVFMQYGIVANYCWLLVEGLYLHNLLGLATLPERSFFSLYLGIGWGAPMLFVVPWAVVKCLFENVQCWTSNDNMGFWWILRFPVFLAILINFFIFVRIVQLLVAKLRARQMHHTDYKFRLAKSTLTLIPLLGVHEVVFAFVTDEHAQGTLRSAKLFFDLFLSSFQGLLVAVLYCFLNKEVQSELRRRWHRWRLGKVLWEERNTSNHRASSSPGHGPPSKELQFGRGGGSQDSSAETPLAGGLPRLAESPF

[1] = Assay (X) Chemical stability assessment by RP-UPLC; format: physicochemical; settings: pH 8.15, 14 days at 37° C. vs 5° C., 333 μM
[2] = Assay (XI) Pharmacokinetic study in minipigs; format: in vivo, Göttingen minipigs; settings: i.v. administration, terminal half-life; for half-life: minipig, iv, read-out: iv PK minipig [T½] (converted)
Method: Buffer: • 50 mM Dinatriumphosphatdihydrat • 184 mM Propylenglycol • 58 mM Phenol • pH adjusted to 8.15 with H3PO4. In cases where pH was adjusted to 8.15 after re-suspension of analogues, 0.2 M NaOH was used. Assay (XI) Pharmacokinetic Study in Minipigs
This is done in a pharmacokinetic (PK) study, whereamong other parameters the terminal half-life and the clearance of the derivative in question is determined. Increasing the terminal half-life and decreasing the clearance means that the compound of study is eliminated slower from the body.
Male or female Göttingen minipigs were obtained from Ellegaard Göttingen Minipigs (Dalmose, Denmark) approximately 7-14 months of age and weighing from approximately 16-35 kg were used in the studies. The minipigs were housed either individually (pigs with permanent catheters) or in a group and fed restrictedly once or twice daily with SDS minipig diet (Special Diets Services, Essex, UK). In some studies two permanent central venous catheters were implanted in vena cava caudalis or cranialis in each animal after at least 2 weeks of acclimatisation. […] On each dosing occasion these pigs were instrumented with a venflon in one ear vein through which the derivatives were dosed. Blood sampling was done by venipuncture in v. jugularis or v. cava cranialis
The animals were either unfasted or fasted for approximately 18 h before dosing and from 0 to 4 h after dosing, but had ad libitum access to water during the whole period.
Intravenous injections (the volume corresponding to usually 2-3 nmol/kg, for example 0.1 ml/kg) of the compounds were given through one catheter or through the venflon, and blood was sampled at predefined time points for up till 13 days post dosing (preferably through the other catheter or by venipuncture). Blood samples (for example 0.8 ml) were collected in tubes with EDTA buffer (8 mM) (sometimes aprotinin 500 KIU/ml blood was added) and then centrifuged at 4° C. and 1942 G for 10 minutes. […] Based on these measurements, time-plasma concentration profiles for the compound of study are plotted and a so-called non-compartmental pharmacokinetic analysis of the data is performed in WinNonlin v. 5.0 or Phoenix v. 6.2 (Pharsight Inc., Mountain View, Calif., USA) or other relevant software for PK analysis. For most compounds, the terminal part of the plasma-concentration profiles will be linear when drawn in a semi-logarithmic plot, reflecting that after the initial distribution, drug is removed from the body at a constant fractional rate. The rate (lambda Z or is equal to minus the slope of the terminal part of the plot. From this rate, also the terminal half-life may be calculated, as t½=ln(2)/λz (see, e.g., Johan Gabrielsson and Daniel Weiner: Pharmacokinetics and Pharmacodynamic Data Analysis. Concepts & Applications, 3rd Ed., Swedish Pharmaceutical Press, Stockholm (2000)).
Clearance is defined as the dose (D) divided by area under the curve (AUC) on the plasmaconcentration versus time profile (Rowland, M and Tozer T N: Clinical Pharmacokinetics: Concepts and Applications, 3rd edition, 1995 Williams Wilkins)

iv PK minipig [T½] [2]	half-life ([2]; in vivo)	SMILES	EC50 (glucagon receptor)	Chemical stability [Purity loss/14 days 37 C.] [1]	half-life ([2]; both sexes, Göttingen, plasma)
		CC(C)C[C@H](NC(=O)[C@H](CC(=O)O)NC(=O)[C@H](CC(C)C)NC(=O)[C@H](Cc1ccc(O)cc1)NC(=O)[C@H](CCCCN)NC(=O)[C@H](CO)NC(=O)[C@@H](NC(=O)[C@H](CC(=O)O)NC(=O)[C@H](CO)NC(=O)[C@@H](NC(=O)[C@H](Cc1ccccc1)NC(=O)[C@@H](NC(=O)CNC(=O)[C@H](CCC(N)=O)NC(=O)[C@H](CO)NC(=O)[C@@H](N)Cc1c[nH]cn1)[C@@H](C)O)[C@@H](C)O)C(C)C)C(=O)N[C@@H](CCCNC(=N)N)C(=O)N[C@@H](CCCNC(=N)N)C(=O)N[C@@H](C)C(=O)N[C@@H](CCC(N)=O)C(=O)N[C@@H](CCC(=O)O)C(=O)N[C@@H](Cc1ccccc1)C(=O)N[C@H](C(=O)N[C@@H](CCCCNC(=O)CC[C@H](NC(=O)COCCOCCNC(=O)COCCOCCNC(=O)CC[C@H](NC(=O)CC[C@H](NC(=O)CCCCCCCCCCCCCCCCC(=O)O)C(=O)O)C(=O)O)C(=O)O)C(=O)N[C@@H](Cc1c[nH]c2ccccc12)C(=O)N[C@@H](CC(C)C)C(=O)N[C@@H](CC(C)C)C(=O)N[C@@H](CO)C(=O)N[C@H](C(=O)O)[C@@H](C)O)C(C)C [Example 63, N^ε24-[(4S)-4-carboxy-4-[[2-[2-[2-[[2-[2-[2-[[(4S)-4-carboxy-4-[[(4S)-4-carboxy-4-(17-carboxyheptadecanoylamino)butanoyl]amino]butanoyl]amino]ethoxy]ethoxy]acetyl]amino]ethoxy]ethoxy]acetyl]amino]butanoyl]-[Val10,Leu16,Glu21,Lys24,Leu27,Ser28]-Glucagon] (H-HSQGTFTSDVSKYLDLRRAQEFVK([γGlu-AEEA-AEEA-γGlu-γGlu-C18 diacid])WLLST-OH)	0.088 nM	4.1%	2.65 days
83.0 h		CC(C)C[C@H](NC(=O)[C@H](Cc1c[nH]c2ccccc12)NC(=O)[C@H](CCCCNC(=O)CC[C@H](NC(=O)CC[C@H](NC(=O)COCCOCCNC(=O)COCCOCCNC(=O)CC[C@H](NC(=O)CCCCCCCCCCCCCCCCC(=O)O)C(=O)O)C(=O)O)C(=O)O)NC(=O)[C@@H](NC(=O)[C@H](Cc1ccccc1)NC(=O)[C@H](CCC(=O)O)NC(=O)[C@H](CCC(N)=O)NC(=O)[C@H](C)NC(=O)[C@H](CCCNC(=N)N)NC(=O)[C@H](CCCNC(=N)N)NC(=O)[C@@H](NC(=O)[C@H](CC(=O)O)NC(=O)[C@H](CC(C)C)NC(=O)[C@H](Cc1ccc(O)cc1)NC(=O)[C@H](CCCCN)NC(=O)[C@H](CO)NC(=O)[C@@H](NC(=O)[C@H](CC(=O)O)NC(=O)[C@H](CO)NC(=O)[C@@H](NC(=O)[C@H](Cc1ccccc1)NC(=O)[C@@H](NC(=O)CNC(=O)[C@H](CCC(N)=O)NC(=O)[C@H](CO)NC(=O)[C@@H](N)Cc1c[nH]cn1)[C@@H](C)O)[C@@H](C)O)C(C)C)[C@@H](C)O)C(C)C)C(=O)N[C@@H](CC(C)C)C(=O)N[C@@H](CO)C(=O)N[C@H](C(=O)O)[C@@H](C)O [Example 38, N^ε24-[(4S)-4-carboxy-4-[[(4S)-4-carboxy-4-[[2-[2-[2-[[2-[2-[2-[[(4S)-4-carboxy-4-(17-carboxyheptadecanoylamino)butanoyl]amino]ethoxy]ethoxy]acetyl]amino]ethoxy]ethoxy]acetyl]amino]butanoyl]amino]butanoyl]-[Val10,Thr16,Glu21,Lys24,Leu27,Ser28]-Glucagon] (H-HSQGTFTSDVSKYLDTRRAQEFVK([γGlu-γGlu-AEEA-AEEA-γGlu-C18 diacid])WLLST-OH)		4.2%	
		CC(C)C[C@H](NC(=O)[C@H](CC(=O)O)NC(=O)[C@H](CC(C)C)NC(=O)[C@H](Cc1ccc(O)cc1)NC(=O)[C@H](CCCNC(=N)N)NC(=O)[C@H](CO)NC(=O)[C@H](Cc1ccc(O)cc1)NC(=O)[C@H](CC(=O)O)NC(=O)[C@H](CO)NC(=O)[C@@H](NC(=O)[C@H](Cc1ccccc1)NC(=O)[C@@H](NC(=O)CNC(=O)[C@H](CCC(N)=O)NC(=O)[C@H](CO)NC(=O)[C@@H](N)Cc1c[nH]cn1)[C@@H](C)O)[C@@H](C)O)C(=O)N[C@@H](CCCNC(=N)N)C(=O)N[C@@H](CCCNC(=N)N)C(=O)N[C@@H](C)C(=O)N[C@@H](CCC(N)=O)C(=O)N[C@@H](CC(=O)O)C(=O)N[C@@H](Cc1ccccc1)C(=O)N[C@H](C(=O)N[C@@H](CCCCNC(=O)CC[C@H](NC(=O)CC[C@H](NC(=O)COCCOCCNC(=O)COCCOCCNC(=O)CC[C@H](NC(=O)CCCCCCCCCCCCCCCCC(=O)O)C(=O)O)C(=O)O)C(=O)O)C(=O)N[C@@H](Cc1c[nH]c2ccccc12)C(=O)N[C@@H](CC(C)C)C(=O)N[C@@H](CC(C)C)C(=O)N[C@@H](CO)C(=O)N[C@H](C(=O)O)[C@@H](C)O)C(C)C [Example 15, N^ε24-[(4S)-4-carboxy-4-[[(4S)-4-carboxy-4-[[2-[2-[2-[[2-[2-[2-[[(4S)-4-carboxy-4-(17-carboxyheptadecanoylamino)butanoyl]amino]ethoxy]ethoxy]acetyl]amino]ethoxy]ethoxy]acetyl]amino]butanoyl]amino]butanoyl]-[Arg^12,Leu^16,Lys^24,Leu^27,Ser^28]-Glucagon] (H-HSQGTFTSDYSRYLDLRRAQDFVK([γGlu-γGlu-AEEA-AEEA-γGlu-C18 diacid])WLLST-OH)	0.255 nM	5.3%	3.23 days
	3.18 days	CC(C)C[C@H](NC(=O)[C@H](CC(=O)O)NC(=O)[C@H](CC(C)C)NC(=O)[C@H](Cc1ccc(O)cc1)NC(=O)[C@H](CCCCN)NC(=O)[C@H](CO)NC(=O)[C@H](Cc1ccc(O)cc1)NC(=O)[C@H](CC(=O)O)NC(=O)[C@H](CO)NC(=O)[C@@H](NC(=O)[C@H](Cc1ccccc1)NC(=O)[C@@H](NC(=O)CNC(=O)[C@H](CCC(N)=O)NC(=O)[C@H](CO)NC(=O)[C@@H](N)Cc1c[nH]cn1)[C@@H](C)O)[C@@H](C)O)C(=O)N[C@@H](CCCNC(=N)N)C(=O)N[C@@H](CCCNC(=N)N)C(=O)N[C@@H](C)C(=O)N[C@@H](CCC(N)=O)C(=O)N[C@@H](CC(=O)O)C(=O)N[C@@H](Cc1ccccc1)C(=O)N[C@H](C(=O)N[C@@H](CCCCNC(=O)CC[C@H](NC(=O)CC[C@H](NC(=O)COCCOCCNC(=O)COCCOCCNC(=O)CC[C@H](NC(=O)CCCCCCCCCCCCCCCCC(=O)O)C(=O)O)C(=O)O)C(=O)O)C(=O)N[C@@H](Cc1c[nH]c2ccccc12)C(=O)N[C@@H](CC(C)C)C(=O)N[C@@H](CC(C)C)C(=O)N[C@@H](CO)C(=O)N[C@H](C(=O)O)[C@@H](C)O)C(C)C [Example 13, N^ε24-[(4S)-4-carboxy-4-[[(4S)-4-carboxy-4-[[2-[2-[2-[[2-[2-[2-[[(4S)-4-carboxy-4-(17-carboxyheptadecanoylamino)butanoyl]amino]ethoxy]ethoxy]acetyl]amino]ethoxy]ethoxy]acetyl]amino]butanoyl]amino]butanoyl]-[Leu^16,Lys^24,Leu^27,Ser^25]-Glucagon] (H-HSQGTFTSDYSKYLDLRRAQDFVK([γGlu-γGlu-AEEA-AEEA-γGlu-C18 diacid])WLLST-OH; N-terminus and C-terminus assumed)		5.1%	
